Results as given in ChEMBL document CHEMBL4229455, “Synthesis and anticancer activity of novel bisindolylhydroxymaleimide derivatives with potent GSK-3 kinase inhibition” (Bioorg Med Chem, 2018).
pIC50: −log10 of the molar value.

Experiments:
[1] = target: CDK9/cyclin T1 (Homo sapiens) (UniProt O60563+P50750); assay: Inhibition of recombinant full length human CDK9/cyclin T expressed in baculovirus infected Sf9 insect cells assessed as residual activity at 10 uM using YSPTSPSYSPTSPSYSPTSPSKKKK as substrate in presence of [gamma-33P]ATP
[2] = tested on: DU-145; assay: Cytotoxicity against human DU145 cells assessed as cell growth at 10 uM after 48 hrs by SRB assay relative to control; assay type: functional; conditions: DU-145, 48 h, read-out: Activity
[3] = target: Serine/threonine-protein kinase pim-1 (Homo sapiens, UniProt P11309); assay: Inhibition of recombinant full length human PIM1 expressed in bacteria assessed as residual activity at 10 uM using histone H1 as substrate in presence of [gamma-33P]ATP
[4] = tested on: SW-620; assay: Cytotoxicity against human SW620 cells assessed as cell growth at 10 uM after 48 hrs by SRB assay relative to control; assay type: functional; conditions: SW-620, 48 h, read-out: Activity
[5] = tested on: SNB-19; assay: Cytotoxicity against human SNB19 cells assessed as cell growth at 10 uM after 48 hrs by SRB assay relative to control; assay type: functional; conditions: SNB-19, 48 h, read-out: Activity
[6] = tested on: SF-268; assay: Cytotoxicity against human SF268 cells assessed as cell growth at 10 uM after 48 hrs by SRB assay relative to control; assay type: functional; conditions: SF-268, 48 h, read-out: Activity
[7] = target: Glycogen synthase kinase-3 (Sus scrofa, UniProt B2LUN4+I6LNT8); assay: Inhibition of domestic porcine brain full length GSK-3alpha/beta using GS-1 as substrate in presence of [gamma-33P]ATP; design: species or system Sus scrofa domesticus
[8] = tested on: COLO 205; assay: Cytotoxicity against human COLO205 cells assessed as cell growth at 10 uM after 48 hrs by SRB assay relative to control; assay type: functional; conditions: COLO 205, 48 h, read-out: Activity
[9] = tested on: SK-MEL-5; assay: Cytotoxicity against human SK-MEL-5 cells assessed as cell growth at 10 uM after 48 hrs by SRB assay relative to control; assay type: functional; conditions: SK-MEL-5, 48 h, read-out: Activity
[10] = tested on: OVCAR-5; assay: Cytotoxicity against human OVCAR5 cells assessed as cell growth at 10 uM after 48 hrs by SRB assay relative to control; assay type: functional; conditions: OVCAR-5, 48 h, read-out: Activity
[11] = tested on: HCC 2998; assay: Cytotoxicity against human HCC2998 cells assessed as cell growth at 10 uM after 48 hrs by SRB assay relative to control; assay type: functional; conditions: HCC 2998, 48 h, read-out: Activity
[12] = tested on: NCI-H522; assay: Cytotoxicity against human NCI-H522 cells assessed as cell growth at 10 uM after 48 hrs by SRB assay relative to control; assay type: functional; conditions: NCI-H522, 48 h, read-out: Activity
[13] = tested on: CCRF-CEM; assay: Cytotoxicity against human CCRF-CEM cells assessed as cell growth at 10 uM after 48 hrs by SRB assay relative to control; assay type: functional; conditions: read-out: Activity
[14] = species on record: Sus scrofa domesticus; assay: Inhibition of domestic porcine brain full length […] assessed as residual activity at 10 uM using RRKHAAIGSpAYSITA as substrate in presence of [gamma-33P]ATP
[15] = target: Cyclin-dependent kinase 5/CDK5 activator 1 (Homo sapiens) (UniProt Q00535+Q15078); assay: Inhibition of recombinant full length human CDK5/p25 expressed in bacteria assessed as residual activity at 10 uM using histone H1 as substrate in presence of [gamma-33P]ATP
[16] = tested on: Malme-3M; assay: Cytotoxicity against human MALME-3M cells assessed as cell growth at 10 uM after 48 hrs by SRB assay relative to control; assay type: functional; conditions: read-out: Activity
[17] = tested on: CAKI-1; assay: Cytotoxicity against human Caki1 cells assessed as cell growth at 10 uM after 48 hrs by SRB assay relative to control; assay type: functional; conditions: CAKI-1, 48 h, read-out: Activity
[18] = target: CDK2/Cyclin A2 (Homo sapiens) (UniProt P24941+P20248); assay: Inhibition of full length human CDK2/cyclin A assessed as residual activity at 10 uM using histone H1 as substrate in presence of [gamma-33P]ATP; assay type: protein-complex assay
[19] = tested on: NCI/ADR-RES; assay: Cytotoxicity against human NCI-ADR-RES cells assessed as cell growth at 10 uM after 48 hrs by SRB assay relative to control; assay type: functional; conditions: read-out: Activity
[20] = tested on: IGROV-1; assay: Cytotoxicity against human IGROV1 cells assessed as cell growth at 10 uM after 48 hrs by SRB assay relative to control; assay type: functional; conditions: IGROV-1, 48 h, read-out: Activity
[21] = tested on: MDA-MB-468; assay: Cytotoxicity against human MDA-MB-468 cells assessed as cell growth at 10 uM after 48 hrs by SRB assay relative to control; assay type: functional; conditions: MDA-MB-468, 48 h, read-out: Activity
[22] = target: Receptor-interacting serine/threonine-protein kinase 3 (Homo sapiens, UniProt Q9Y572); assay: Inhibition of recombinant full length human RIPK3 expressed in baculovirus infected Sf9 insect cells assessed as residual activity at 10 uM using MBP as substrate in presence of [gamma-33P]ATP
[23] = tested on: SNB-75; assay: Cytotoxicity against human SNB75 cells assessed as cell growth at 10 uM after 48 hrs by SRB assay relative to control; assay type: functional; conditions: SNB-75, 48 h, read-out: Activity
[24] = tested on: MDA-MB-231; assay: Cytotoxicity against human MDA-MB-231 cells assessed as cell growth at 10 uM after 48 hrs by SRB assay relative to control; assay type: functional; conditions: MDA-MB-231, 48 h, read-out: Activity
[25] = tested on: U-251; assay: Cytotoxicity against human U251 cells assessed as cell growth at 10 uM after 48 hrs by SRB assay relative to control; assay type: functional; conditions: U-251, 48 h, read-out: Activity
[26] = tested on: SK-MEL-28; assay: Cytotoxicity against human SK-MEL-28 cells assessed as cell growth at 10 uM after 48 hrs by SRB assay relative to control; assay type: functional; conditions: SK-MEL-28, 48 h, read-out: Activity
[27] = target: CDK9/cyclin T1 (Homo sapiens, UniProt P50750); assay: Inhibition of recombinant full length human CDK9/cyclin T expressed in baculovirus infected Sf9 insect cells using YSPTSPSYSPTSPSYSPTSPSKKKK as substrate in presence of [gamma-33P]ATP
[28] = tested on: KM12; assay: Cytotoxicity against human KM12 cells assessed as cell growth at 10 uM after 48 hrs by SRB assay relative to control; assay type: functional; conditions: KM12, 48 h, read-out: Activity
[29] = tested on: HOP-92; assay: Cytotoxicity against human HOP92 cells assessed as cell growth at 10 uM after 48 hrs by SRB assay relative to control; assay type: functional; conditions: HOP-92, 48 h, read-out: Activity
[30] = tested on: MDA-MB-435; assay: Cytotoxicity against human MDA-MB-435 cells assessed as cell growth at 10 uM after 48 hrs by SRB assay relative to control; assay type: functional; conditions: MDA-MB-435, 48 h, read-out: Activity
[31] = tested on: SF-539; assay: Cytotoxicity against human SF539 cells assessed as cell growth at 10 uM after 48 hrs by SRB assay relative to control; assay type: functional; conditions: SF-539, 48 h, read-out: Activity

Chain of Serine/threonine-protein kinase pim-1 (P11309 whole entry, looked up): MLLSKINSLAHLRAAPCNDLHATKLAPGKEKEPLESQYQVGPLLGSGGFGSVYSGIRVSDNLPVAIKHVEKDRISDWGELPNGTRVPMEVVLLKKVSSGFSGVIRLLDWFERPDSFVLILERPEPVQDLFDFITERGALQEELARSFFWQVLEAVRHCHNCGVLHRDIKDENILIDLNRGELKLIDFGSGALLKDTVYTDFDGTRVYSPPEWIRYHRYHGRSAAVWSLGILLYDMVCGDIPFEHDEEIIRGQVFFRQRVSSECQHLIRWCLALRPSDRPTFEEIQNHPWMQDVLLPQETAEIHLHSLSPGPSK
Chain of Cyclin-dependent kinase 5/CDK5 activator 1 (Homo sapiens) (Q00535 whole entry): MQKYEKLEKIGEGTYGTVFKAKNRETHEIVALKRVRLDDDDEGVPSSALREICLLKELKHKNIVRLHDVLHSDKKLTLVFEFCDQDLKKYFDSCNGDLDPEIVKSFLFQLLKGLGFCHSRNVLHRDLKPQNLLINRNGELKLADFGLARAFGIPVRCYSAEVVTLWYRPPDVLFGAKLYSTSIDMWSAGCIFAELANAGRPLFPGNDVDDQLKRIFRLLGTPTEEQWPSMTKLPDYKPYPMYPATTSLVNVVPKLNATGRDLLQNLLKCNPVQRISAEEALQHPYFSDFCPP
Chain of Cyclin-dependent kinase 5/CDK5 activator 1 (Homo sapiens) (Q15078 99-307 partner limits assumed): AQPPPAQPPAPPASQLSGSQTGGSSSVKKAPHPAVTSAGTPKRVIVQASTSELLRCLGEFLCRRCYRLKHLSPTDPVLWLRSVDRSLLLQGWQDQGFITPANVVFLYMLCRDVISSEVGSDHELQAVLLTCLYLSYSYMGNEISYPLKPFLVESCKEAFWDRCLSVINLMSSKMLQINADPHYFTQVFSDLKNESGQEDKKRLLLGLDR
Chain of CDK9/cyclin T1 (O60563 whole entry): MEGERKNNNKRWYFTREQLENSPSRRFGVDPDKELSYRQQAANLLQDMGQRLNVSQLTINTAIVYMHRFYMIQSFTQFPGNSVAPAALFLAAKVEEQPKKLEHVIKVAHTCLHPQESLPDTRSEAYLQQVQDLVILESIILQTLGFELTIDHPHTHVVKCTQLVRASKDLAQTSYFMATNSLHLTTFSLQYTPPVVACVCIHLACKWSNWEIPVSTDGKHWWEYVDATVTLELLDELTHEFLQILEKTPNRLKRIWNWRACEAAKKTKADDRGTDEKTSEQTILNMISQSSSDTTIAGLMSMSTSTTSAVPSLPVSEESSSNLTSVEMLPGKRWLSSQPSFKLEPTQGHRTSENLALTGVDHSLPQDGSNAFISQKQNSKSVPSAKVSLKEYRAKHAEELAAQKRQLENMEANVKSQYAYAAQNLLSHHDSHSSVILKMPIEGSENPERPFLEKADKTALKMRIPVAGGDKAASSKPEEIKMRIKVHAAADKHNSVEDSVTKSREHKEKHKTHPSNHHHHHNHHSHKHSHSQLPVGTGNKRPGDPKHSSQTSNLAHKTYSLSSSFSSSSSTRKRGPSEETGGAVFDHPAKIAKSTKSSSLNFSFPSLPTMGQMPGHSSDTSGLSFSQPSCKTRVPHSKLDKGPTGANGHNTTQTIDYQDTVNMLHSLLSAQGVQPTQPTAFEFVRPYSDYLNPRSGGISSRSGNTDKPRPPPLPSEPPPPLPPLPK
Chain of CDK9/cyclin T1 (P50750 whole entry): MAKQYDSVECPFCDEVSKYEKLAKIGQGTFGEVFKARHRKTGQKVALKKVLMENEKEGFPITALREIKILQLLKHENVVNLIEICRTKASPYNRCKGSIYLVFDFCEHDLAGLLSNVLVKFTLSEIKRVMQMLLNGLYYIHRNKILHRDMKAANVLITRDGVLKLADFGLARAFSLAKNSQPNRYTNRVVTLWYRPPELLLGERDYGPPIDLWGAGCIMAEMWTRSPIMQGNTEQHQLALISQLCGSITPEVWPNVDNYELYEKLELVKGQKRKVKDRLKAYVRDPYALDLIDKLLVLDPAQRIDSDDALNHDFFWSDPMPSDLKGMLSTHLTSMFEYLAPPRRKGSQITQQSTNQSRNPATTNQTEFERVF
Chain of Receptor-interacting serine/threonine-protein kinase 3 (Q9Y572 whole entry, looked up): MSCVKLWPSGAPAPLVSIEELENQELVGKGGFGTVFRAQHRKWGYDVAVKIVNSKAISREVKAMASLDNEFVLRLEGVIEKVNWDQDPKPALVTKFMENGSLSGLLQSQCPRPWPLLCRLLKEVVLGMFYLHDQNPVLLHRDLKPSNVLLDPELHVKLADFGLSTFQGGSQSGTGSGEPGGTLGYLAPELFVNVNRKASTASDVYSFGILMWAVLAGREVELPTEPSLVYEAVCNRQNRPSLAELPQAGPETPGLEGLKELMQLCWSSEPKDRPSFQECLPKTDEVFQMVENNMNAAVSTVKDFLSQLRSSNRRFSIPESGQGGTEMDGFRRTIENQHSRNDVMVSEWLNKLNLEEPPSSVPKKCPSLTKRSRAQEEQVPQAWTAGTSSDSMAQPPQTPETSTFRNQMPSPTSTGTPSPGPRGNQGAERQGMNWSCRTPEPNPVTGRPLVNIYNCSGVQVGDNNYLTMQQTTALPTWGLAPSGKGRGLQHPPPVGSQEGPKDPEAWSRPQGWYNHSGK

Row | Compound | Activity [1] [%] | growth at 10 µM [2] [%] | Activity [3] [%] | growth at 10 µM [4] [%] | growth at 10 µM [6] [%] | IC50 [7] [nM] | growth at 10 µM [8] [%] | growth at 10 µM [9] [%] | growth at 10 µM [10] [%] | growth at 10 µM [11] [%] | growth at 10 µM [12] [%] | Activity [14] [%] | Activity [15] [%] | growth at 10 µM [17] [%] | Activity [18] [%] | growth at 10 µM [19] [%] | growth at 10 µM [20] [%] | growth at 10 µM [21] [%] | Activity [22] [%] | growth at 10 µM [23] [%] | also measured
1 | N#CCCCCCn1cc(C2=C(c3cn(CCCCCC#N)c4ccccc34)C(=O)N(O)C2=O)c2ccccc21 | 55 | 80 to 101 | 78 | 31 to 62.5 | 50 to 80.6 | 750 | 74 to 91.7 | 2 to 39.4 | 95 to 106 | 59 to 99.6 | 1 to 54.9 | 67 | 75 | 65 to 67 | 78 | 62 to 96.3 | 28 to 66.8 | 3 to 58 | 109 | 14 to 67.7 | growth at 10 µM [5]: 27 to 79.5%; growth at 10 µM [13]: 8 to 54.2%; growth at 10 µM [16]: 55%; growth at 10 µM [24]: 31 to 40.3%; growth at 10 µM [25]: 25 to 82.2%; growth at 10 µM [26]: 35 to 83.3%; pIC50 [27]: < 5.00; growth at 10 µM [28]: 25 to 65.7%; growth at 10 µM [29]: 25%
2 | Cn1cc(C2=C(c3cn(CCCCCC(=O)O)c4ccccc34)C(=O)N(O)C2=O)c2ccccc21 | 15 | 109 | 64 | 98.9 | 99.5 | 3200 | 109 | 97.8 | 96.3 | 110 | 88.3 | 80 | 34 | 86.8 | 36 | 100 | 103 | 102 | 106 | 86.5 | growth at 10 µM [5]: 104%; growth at 10 µM [13]: 84.4%; growth at 10 µM [30]: 102%; growth at 10 µM [24]: 84.7%; growth at 10 µM [25]: 102%; growth at 10 µM [26]: 106%; pIC50 [27]: 6.15; growth at 10 µM [31]: 98.9%; growth at 10 µM [28]: 99.3%; growth at 10 µM [29]: 71.8%
3 | N#CCCCCCn1cc(C2=C(c3cn(CCCCCC#N)c4ccccc34)C(=O)NC2=O)c2ccccc21 | 9 | 100 | 54 | 108 | 107 | 120 | 73.8 | 78.7 | 128 | 107 | 88.7 | 108 | 46 | 82.5 | 36 | 79 | 124 | 63.3 | 100 | 47.2 | growth at 10 µM [13]: 73.5%; growth at 10 µM [16]: 121%; growth at 10 µM [30]: 105%; growth at 10 µM [24]: 81.4%; growth at 10 µM [25]: 83.8%; growth at 10 µM [26]: 133%; pIC50 [27]: 6.38; growth at 10 µM [31]: 53.7%; growth at 10 µM [28]: 81%; growth at 10 µM [29]: 142%
4 | Cn1cc(C2=C(c3cn(C)c4ccccc34)C(=O)N(O)C2=O)c2ccccc21 | 38 | 123 | 33 | 95.9 | 112 | 3000 | 104 | 92.8 | 105 | 106 | 98.4 | 104 | 82 | 90.1 | 83 | 102 | 109 | 86.4 | 100 | 90.3 | growth at 10 µM [5]: 102%; growth at 10 µM [16]: 118%; growth at 10 µM [30]: 94.9%; growth at 10 µM [24]: 98%; growth at 10 µM [25]: 91.4%; growth at 10 µM [26]: 107%; pIC50 [27]: 5.05; growth at 10 µM [31]: 107%; growth at 10 µM [28]: 104%; growth at 10 µM [29]: 80.8%
5 | O=C1C2=C(C(=O)N1O)c1cn(c3ccccc13)CCCCCCn1cc2c2ccccc21 | 87 | 108 | 68 | 98.6 | 105 | > 10000 | 110 | 99.6 | 98.2 | 110 | 108 | 103 | 91 | 95.7 | 89 | 108 | 113 | 97.5 | 108 | 91.4 | growth at 10 µM [13]: 99.4%; growth at 10 µM [16]: 105%; growth at 10 µM [30]: 111%; growth at 10 µM [24]: 104%; growth at 10 µM [25]: 106%; growth at 10 µM [26]: 108%; pIC50 [27]: < 5.00; growth at 10 µM [31]: 95.7%; growth at 10 µM [28]: 107%; growth at 10 µM [29]: 79.6%
